Experimental data from publication PMC10709440, “High-throughput ligand profile characterization in novel cell lines expressing seven heterologous insect olfactory receptors for the detection of volatile plant biomarkers” (Scientific Reports, 2023).
Where two headings read alike, the source gives them in different places.

What was measured:
Drosophila OR13a = molecular target: T1, Drosophila OR13a (Drosophila melanogaster, UniProt Q9VXL0); test: Calcium ion fluorescence (GCaMP6) assay, OR13a stable HEK293 cell line; format: cell-based; settings: for OR13a response (VUAA1-normalized) at 1 μM / OR13a response (VUAA1-normalized) at 10 μM / OR13a response (VUAA1-normalized) at 100 μM: OR13a cell line; for OR13a response (VUAA1-normalized) at 1 μM: VOC concentration 1 μM; for OR13a response (VUAA1-normalized) at 10 μM: VOC concentration 10 μM; for OR13a response (VUAA1-normalized) at 100 μM: VOC concentration 100 μM
T1 construct: expressed in transfected cells
T1 sequence (Q9VXL0 1-418): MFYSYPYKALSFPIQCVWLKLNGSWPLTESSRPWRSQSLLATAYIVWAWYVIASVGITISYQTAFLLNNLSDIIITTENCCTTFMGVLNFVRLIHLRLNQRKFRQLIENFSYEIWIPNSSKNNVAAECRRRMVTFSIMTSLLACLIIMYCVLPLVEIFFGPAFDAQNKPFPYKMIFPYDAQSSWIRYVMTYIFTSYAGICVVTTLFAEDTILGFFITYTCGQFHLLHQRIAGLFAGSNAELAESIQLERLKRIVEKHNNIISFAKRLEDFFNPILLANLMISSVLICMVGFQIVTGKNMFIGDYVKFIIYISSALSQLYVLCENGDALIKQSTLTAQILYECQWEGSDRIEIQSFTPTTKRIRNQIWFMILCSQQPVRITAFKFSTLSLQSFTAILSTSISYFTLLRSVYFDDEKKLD
T1 sequence (Q9VNB5 1-486 partner): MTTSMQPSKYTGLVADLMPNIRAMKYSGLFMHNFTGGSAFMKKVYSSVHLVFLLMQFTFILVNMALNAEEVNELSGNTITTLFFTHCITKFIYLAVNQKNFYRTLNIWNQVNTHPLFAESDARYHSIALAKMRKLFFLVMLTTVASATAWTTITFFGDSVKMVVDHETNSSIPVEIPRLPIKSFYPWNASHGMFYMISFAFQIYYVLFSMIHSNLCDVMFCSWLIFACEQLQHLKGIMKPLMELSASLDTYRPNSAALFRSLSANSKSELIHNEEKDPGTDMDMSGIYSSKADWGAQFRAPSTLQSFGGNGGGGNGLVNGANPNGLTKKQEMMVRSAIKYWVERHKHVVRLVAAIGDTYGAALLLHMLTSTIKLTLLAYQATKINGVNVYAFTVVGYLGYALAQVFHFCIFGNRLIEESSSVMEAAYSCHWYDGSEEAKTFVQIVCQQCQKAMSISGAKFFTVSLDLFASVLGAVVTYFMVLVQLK
Outline: (§1)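 HEK293 lines stably expressing each Drosophila OR with GCaMP6, doxycycline-induced (1 μg/mL) 48 or 72 h. Fluorescence recorded 5 s baseline then 30 s after VOC injection at pH 7.3; ΔF=(FMAX−F0)/F0, normalized to 50 µM VUAA1 response per line, triplicate wells averaged; concentration series 0.01–100 μM.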

Drosophila OR47a = molecular target: T2, Drosophila OR47a (Drosophila melanogaster, UniProt P81921); test: Calcium ion fluorescence (GCaMP6) assay, OR47a stable HEK293 cell line; format: cell-based; settings: for OR47a response (VUAA1-normalized) at 1 μM / OR47a response (VUAA1-normalized) at 10 μM / OR47a response (VUAA1-normalized) at 100 μM / Average response: OR47a cell line; for OR47a response (VUAA1-normalized) at 1 μM: VOC concentration 1 μM; for OR47a response (VUAA1-normalized) at 10 μM: VOC concentration 10 μM; for OR47a response (VUAA1-normalized) at 100 μM: VOC concentration 100 μM; for Average response: mean of biological replicates; for OR47a Average response (VUAA1-normalized): 50 μM VUAA1 = 1
T2 construct: expressed in transfected cells
T2 sequence (P81921 1-385): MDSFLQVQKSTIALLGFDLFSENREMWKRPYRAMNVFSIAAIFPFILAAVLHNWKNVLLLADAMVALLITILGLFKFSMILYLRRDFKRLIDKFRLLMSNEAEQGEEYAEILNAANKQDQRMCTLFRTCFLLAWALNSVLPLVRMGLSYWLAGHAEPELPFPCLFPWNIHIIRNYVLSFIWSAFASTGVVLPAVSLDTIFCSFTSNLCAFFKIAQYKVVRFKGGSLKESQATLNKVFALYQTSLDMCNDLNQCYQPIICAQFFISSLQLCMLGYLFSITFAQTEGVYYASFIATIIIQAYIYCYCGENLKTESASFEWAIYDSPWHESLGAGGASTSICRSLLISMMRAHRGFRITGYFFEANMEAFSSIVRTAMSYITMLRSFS
T2 sequence (Q9VNB5 1-486 partner): T1 sequence (Q9VNB5 1-486 partner)
Outline: as §1

[1] = HEK293, read-out: OR13a Average response (VUAA1-normalized), 1 μM VOC, 50 μM VUAA1 = 1, responses not exceeding 0.05 considered 0
[2] = HEK293, read-out: OR13a Average response (VUAA1-normalized), 10 μM VOC, 50 μM VUAA1 = 1, responses not exceeding 0.05 considered 0
[3] = HEK293, read-out: OR13a Average response (VUAA1-normalized), 100 μM VOC, 50 μM VUAA1 = 1, responses not exceeding 0.05 considered 0
[4] = HEK293, read-out: OR13a response (VUAA1-normalized response), VOC concentration 1 μM
[5] = HEK293, read-out: OR13a response (VUAA1-normalized response), VOC concentration 10 μM
[6] = HEK293, read-out: OR13a response (VUAA1-normalized response), VOC concentration 100 μM
[7] = ligand concentration 1 (unit not given), threshold 0.05, below shown as 0
[8] = ligand concentration 10 (unit not given), threshold 0.05, below shown as 0
[9] = ligand concentration 100 (unit not given), threshold 0.05, below shown as 0
[10] = HEK293, read-out: OR47a response (VUAA1-normalized response)
[11] = concentration 1, normalized fluorescence change, values below 0.05 threshold given as 0
[12] = concentration 10, normalized fluorescence change, values below 0.05 threshold given as 0
[13] = concentration 100, normalized fluorescence change, values below 0.05 threshold given as 0
[14] = HEK293, read-out: OR47a Average response (VUAA1-normalized)
[15] = ligand concentration 1 (unit not given), 0.05 threshold, values below shown as 0
[16] = ligand concentration 10 (unit not given), 0.05 threshold, values below shown as 0
[17] = ligand concentration 100 (unit not given), 0.05 threshold, values below shown as 0

Structure (SMILES)	activation at 1 µM (Drosophila OR13a; [1]) [%]	activation at 10 µM (Drosophila OR13a; [2]) [%]	activation at 100 µM (Drosophila OR13a; [3]) [%]	activation at 1 µM (Drosophila OR13a; [4]) [%]	activation at 10 µM (Drosophila OR13a; [5]) [%]	activation at 100 µM (Drosophila OR13a; [6]) [%]	DF norm AVERAGE OR13a (Drosophila OR13a; [7])	DF norm AVERAGE OR13a (Drosophila OR13a; [8])	DF norm AVERAGE OR13a (Drosophila OR13a; [9])	activation at 1 µM (Drosophila OR47a; [10]) [%]	activation at 10 µM (Drosophila OR47a; [10]) [%]	activation at 100 µM (Drosophila OR47a; [10]) [%]	Average response (Drosophila OR47a; odorant cc. 1 µM)	Average response (Drosophila OR47a; odorant cc. 10 µM)	Average response (Drosophila OR47a; odorant cc. 100 µM)	DF norm AVERAGE OR47a (Drosophila OR47a; [7])	DF norm AVERAGE OR47a (Drosophila OR47a; [8])	DF norm AVERAGE OR47a (Drosophila OR47a; [9])	DF norm AVERAGE OR13a (Drosophila OR13a; [11])	DF norm AVERAGE OR13a (Drosophila OR13a; [12])	other results
CC/C=C\CCOC(C)=O [Z-3-hexenyl acetate]	–	–	–	–	–	–	–	–	–	–	–	–	–	–	–	–	–	–	–	–	OR13a response (VUAA1-normalized) at 1 μM (Drosophila OR13a): 0.00; OR13a response (VUAA1-normalized) at 10 μM (Drosophila OR13a): 0.00; OR13a response (VUAA1-normalized) at 100 μM (Drosophila OR13a): 0.09; OR47a response (VUAA1-normalized) at 1 μM (Drosophila OR47a): 0.35; OR47a response (VUAA1-normalized) at 10 μM (Drosophila OR47a): 0.67; OR47a response (VUAA1-normalized) at 100 μM (Drosophila OR47a): 0.76
C=C1CCC2CC1C2(C)C (stereo not drawn) [beta-pinene]	8	0	3.25	8	0	0	0.08064	0	0	0	0	0	0.00	0.00	0.00	0	0	0	–	–	–
CCCC(O)CC (stereo not drawn) [3-hexanol]	5	4.43	1.88	0	0	0	–	–	–	0	0	11	0.00	0.00	0.11	–	–	–	0	0	DF norm AVERAGE OR13a (Drosophila OR13a; [13]): 0; activation at 1 µM (Drosophila OR47a; [14]): 0%; activation at 10 µM (Drosophila OR47a; [14]): 0%; activation at 100 µM (Drosophila OR47a; [14]): 11%; DF norm AVERAGE OR47a (Drosophila OR47a; [11]): 0; DF norm AVERAGE OR47a (Drosophila OR47a; [12]): 0; DF norm AVERAGE OR47a (Drosophila OR47a; [13]): 0.1087
C=C1CC/C=C(\C)CC[C@@H]2[C@@H]1CC2(C)C [(-)-trans-caryophyllene]	0	11	10	0	11	10	–	–	–	0	0	0	0.0166	0.0326	0.00	–	–	–	0	0.1145	DF norm AVERAGE OR13a (Drosophila OR13a; [13]): 0.105; DF norm AVERAGE OR47a (Drosophila OR47a; [11]): 0; DF norm AVERAGE OR47a (Drosophila OR47a; [12]): 0; DF norm AVERAGE OR47a (Drosophila OR47a; [13]): 0
C=CCc1ccc(O)c(OC)c1 [eugenol]	0	0	0	0	0	0	0	0	0	0	0	0	0.00	0.0283	0.0436	0	0	0	–	–	–
CCCCC(C)O (stereo not drawn) [2-hexanol]	0	0	5	0	0	0	–	–	–	0	0	5	0.04	0.00	0.05	–	–	–	0	0	DF norm AVERAGE OR13a (Drosophila OR13a; [13]): 0; DF norm AVERAGE OR47a (Drosophila OR47a; [11]): 0; DF norm AVERAGE OR47a (Drosophila OR47a; [12]): 0; DF norm AVERAGE OR47a (Drosophila OR47a; [13]): 0.05091
CC(=O)OCC(C)C [isobutyl acetate]	2	7	3.7	0	7	0	0	0.06695	0	19	15	65	0.19	0.15	0.65	0.1884	0.1518	0.646	–	–	activation at 1 µM (Drosophila OR47a; [14]): 19%; activation at 10 µM (Drosophila OR47a; [14]): 15%; activation at 100 µM (Drosophila OR47a; [14]): 65%
CC/C=C/CCO [e3-hexenol]	–	–	–	–	–	–	0	0	0.07115	–	–	–	0.06	0.00	0.14	0.06256	0	0.1396	–	–	OR13a Average response (VUAA1-normalized) (Drosophila OR13a; 1 μM VOC, 50 μM VUAA1 = 1, responses not exceeding 0.05 considered 0): 0.00; OR13a Average response (VUAA1-normalized) (Drosophila OR13a; 10 μM VOC, 50 μM VUAA1 = 1, responses not exceeding 0.05 considered 0): 0.00; OR13a Average response (VUAA1-normalized) (Drosophila OR13a; 100 μM VOC, 50 μM VUAA1 = 1, responses not exceeding 0.05 considered 0): 0.07; OR47a Average response (VUAA1-normalized) (Drosophila OR47a; 1 μM VOC): 0.06; OR47a Average response (VUAA1-normalized) (Drosophila OR47a; 10 μM VOC): 0.00; OR47a Average response (VUAA1-normalized) (Drosophila OR47a; 100 μM VOC): 0.14
CC1=CCC23CC1C(C)(C)C2CCC3C (stereo not drawn) [α-funebrene]	0	0	0	–	–	–	–	–	–	–	–	–	0.00	0.00	0.00	–	–	–	–	–	OR13a response (VUAA1-normalized) at 1 μM (Drosophila OR13a): 0.00; OR13a response (VUAA1-normalized) at 10 μM (Drosophila OR13a): 0.00; OR13a response (VUAA1-normalized) at 100 μM (Drosophila OR13a): 0.00; DF norm AVERAGE OR13a (Drosophila OR13a; [15]): 0; DF norm AVERAGE OR13a (Drosophila OR13a; [16]): 0; DF norm AVERAGE OR13a (Drosophila OR13a; [17]): 0; OR47a response (VUAA1-normalized) at 1 μM (Drosophila OR47a): 0.00; OR47a response (VUAA1-normalized) at 10 μM (Drosophila OR47a): 0.00; OR47a response (VUAA1-normalized) at 100 μM (Drosophila OR47a): 0.00; DF norm AVERAGE OR47a (Drosophila OR47a; [15]): 0; DF norm AVERAGE OR47a (Drosophila OR47a; [16]): 0; DF norm AVERAGE OR47a (Drosophila OR47a; [17]): 0
